Measured values from US7678538B2, “Disinfection of biological fluids using asymmetric cyanine dyes” (American National Red Cross, priority 2005, dated 2010).
Values joined by “and” are separate entries in the source; they are usually repeats but may differ in a detail not shown here. Equal values may be shown once.

Tests used:
VSV = type: cell-based; conditions: 80 μM TO, 7.4 J/cm^2 cool white light, 20% hematocrit RBCs, 60 min incubation
PRV = type: cell-based, Pseudorabies virus; conditions: 80 μM TO, 7.4 J/cm^2 cool white light, 20% hematocrit RBCs, 60 min incubation
BVDV = type: cell-based, Bovine viral diarrhea virus
extracellular HIV = type: cell-based; conditions: 80 μM TO, 7.4 J/cm^2 cool white light, 20% hematocrit RBCs, 60 min incubation
intracellular HIV = experiment: HIV photoinactivation in RBC suspension, CCRF-CEM coculture and p24 ELISA; type: cell-based, HIV-1; conditions: 80 μM TO, 7.4 J/cm^2 cool white light, 20% hematocrit RBCs, 60 min incubation
bacteriophage φ6 = experiment: Bacteriophage photoinactivation in RBC suspension, plaque assay; type: cell-based; conditions: 80 μM TO, 7.4 J/cm^2 cool white light, 20% hematocrit RBCs, 60 min incubation
Description: Leukodepleted 20% hematocrit RBCs suspended in Erythrosol (RAS-2) were oxygenated, inoculated with test organisms, incubated with TO, and illuminated with 7.4 J/cm^2 of cool white light. Control and treated samples were analyzed by appropriate assay. Identically prepared, but uncontaminated samples were phototreated, concentrated to 45% hematocrit, and assayed for potassium leakage, hemolysis and ATP during storage.
(§1) Viruses or bacteria were added into approximately 50-60% hematocrit RBCs with subsequent addition of additive solution and TO to obtain 20% final hematocrit containing 80 μM of the dye. The final volume of the pathogen spike was equal to 10% for mammalian viruses and equal to 1% for bacteriophage and bacteria. […] A fluence rate of 8.2 mW/cm^2 was measured by an optical power meter (model 371, United Detector Technology, Hawthorn, Calif.) equipped with a silicone diode detector and radiometric filter (400-1000 nm, model 115-9, United Detector Technology). […]
All virus assays were individually tested for cytotoxicity and interference. […] Log10 reduction values were calculated by subtracting the log10 titer/mL of RBCs with viable virus after illumination, or the log10 limit of detection/mL of RBCs without viable virus after illumination, from the measured log10 titer/mL of unilluminated RBCs.

[1] = system: Staphylococcus epidermidis; experiment: Bacteria photoinactivation in RBC suspension, colony count; type: cell-based; conditions: 80 μM TO, 7.4 J/cm^2 cool white light, 20% hematocrit RBCs, 60 min incubation
Staphylococcus aureus = experiment: as above; type: cell-based; conditions: 80 μM TO, 7.4 J/cm^2 cool white light, 20% hematocrit RBCs, 60 min incubation
Deinococcus radiodurans = experiment: as above; type: cell-based; conditions: 80 μM TO, 7.4 J/cm^2 cool white light, 20% hematocrit RBCs, 60 min incubation
Yersinia enterocolitica = experiment: as above; type: cell-based; conditions: 80 μM TO, 7.4 J/cm^2 cool white light, 20% hematocrit RBCs, 60 min incubation
Pseudomonas fluorescens = experiment: as above; type: cell-based; conditions: 80 μM TO, 7.4 J/cm^2 cool white light, 20% hematocrit RBCs, 60 min incubation
Serratia liquefaciens = experiment: as above; type: cell-based; conditions: 80 μM TO, 7.4 J/cm^2 cool white light, 20% hematocrit RBCs, 60 min incubation
Serratia marcescens = experiment: as above; type: cell-based; conditions: 80 μM TO, 7.4 J/cm^2 cool white light, 20% hematocrit RBCs, 60 min incubation
Escherichia coli = experiment: as above; type: cell-based; conditions: 80 μM TO, 7.4 J/cm^2 cool white light, 20% hematocrit RBCs, 60 min incubation
enveloped viruses = type: cell-based
bacteria = experiment: Bacteria photoinactivation, tested species overall; type: cell-based; conditions: 80 μM TO, 7.4 J/cm^2 cool white light
Description: as §1, with “bacteria. RBC suspensions containing dye were incubated for 60 minutes and 2 ml aliquots were transferred to polystyrene culture dishes (50 mm bottom diameter) to produce a 1 mm blood film. For some bacterial experiments, RBC suspensions were incubated for different times prior to illumination.” for “bacteria.”
We prepared bacterial stocks by inoculating a single colony into 5 mL of Luria broth (LB) and incubating cultures overnight under aerobic conditions at 30 or 37° C., depending on the strain. […] Colonies were counted after 24-72 hours of incubation at 30 or 37° C., with time and incubation temperature depending on the strain. Colonies were counted from all plates that contained between 1 and 750 colonies per plate. […]

model viruses = conditions: dimethylmethylene blue phototreatment with quinacrine as competitive membrane binding inhibitor; cited from earlier work

With `CN1/C(=C/c2cc[n+](C)c3ccccc23)Sc2ccccc21.Cc1ccc(S(=O)(=O)[O-])cc1` [TO, 1-methyl-4-[(3-methyl-2(3H)-benzothiazolylidene)methyl]quinoliniump-tosylate] the “Inactivation Log10, VSV” value (VSV) was 7.1 log10 and 7.1±0.2 log10 and 7.1 ± 0.2 (n = 4) log10, the “Inactivation Log10, PRV” value (PRV) was 5.4 log10 and 5.4±0.7 log10 and 5.4 ± 0.7 (n = 4) log10 and the “Inactivation Log10, BVDV” value (BVDV) was 6.2 log10 and 6.2±0.1 log10 and 6.2 ± 0.1 (n = 3) log10. The “Inactivation Log10, extracellular HIV” value (extracellular HIV) was >6.5 (n = 3) log10, the “Inactivation Log10, intracellular HIV” value (intracellular HIV) was >6.3 (n = 3) log10 and the “Inactivation Log10, bacteriophage φ6” value (bacteriophage φ6) was 6.7 log10 and 6.7±0.7 log10 and 6.7 ± 0.7 (n = 3) log10. For the same compound, the “Inactivation Log10, Staphylococcus epidermidis” value [1] was >7.0 (n = 4) log10, the “Inactivation Log10, Staphylococcus aureus” value (Staphylococcus aureus) was 2.4 log10 and 2.4 ± 0.7 (n = 4) log10 and the “Inactivation Log10, Deinococcus radiodurans” value (Deinococcus radiodurans) was >6.8 (n = 3) log10. For the same compound, the “Inactivation Log10, Yersinia enterocolitica” value (Yersinia enterocolitica) was 6.4 log10 and 6.4 ± 2.0 (n = 4) log10, the “Inactivation Log10, Pseudomonas fluorescens” value (Pseudomonas fluorescens) was 2.3 log10 and 2.3 ± 1.2 (n = 4) log10 and the “Inactivation Log10, Serratia liquefaciens” value (Serratia liquefaciens) was 2.8 log10 and 2.8 ± 0.6 (n = 4) log10. For the same compound, the “Inactivation Log10, Serratia marcescens” value (Serratia marcescens) was 3.5 log10 and 3.5 ± 2.5 (n = 3) log10, the “Inactivation Log10, Escherichia coli” value (Escherichia coli) was 5.3 log10 and 5.3 ± 2.0 (n = 4) log10 and the “inactivation of tested enveloped viruses” value (enveloped viruses) was 5.1-7.4 log10. For the same compound, the “inactivation of bacteria, another four (more resistant) species” value (bacteria) was 2-3 log10, the “inactivation of bacteria, four (sensitive) species” value (bacteria) was 5-7 log10 and the “day 42 hemolysis in ADSOL additive solution” value (RBCs) was 1.6±0.6%. The “hemolysis levels during storage, TO versus TP phototreated RBCs” value (RBCs) was “similar” and the “hemolysis on day 42, TO maintained in the dark” value (RBCs) was 0.31%.
In the case of `Cc1cc(=[N+](C)C)cc2sc3cc(N(C)C)cc(C)c3nc1-2.[Cl-]` [dimethylmethylene blue], the “reduction of model viruses” value (model viruses) is given as greater than 6 log10.
